In US11518758B2, “Heteroarylaminopyrimidine amide autophagy inhibitors and methods of use thereof” (Deciphera Pharmaceuticals, LLC, priority 2019, dated 2022) one finds IC50 data, which are given here for 17 molecules.

pIC50: −log10 of the molar value.

One assay addresses T1, ULK1 kinase (Homo sapiens, UniProt O75385).
T1 construct: purchased Eurofins 14-959
T1 sequence (O75385 with tags, fused parts or gaps): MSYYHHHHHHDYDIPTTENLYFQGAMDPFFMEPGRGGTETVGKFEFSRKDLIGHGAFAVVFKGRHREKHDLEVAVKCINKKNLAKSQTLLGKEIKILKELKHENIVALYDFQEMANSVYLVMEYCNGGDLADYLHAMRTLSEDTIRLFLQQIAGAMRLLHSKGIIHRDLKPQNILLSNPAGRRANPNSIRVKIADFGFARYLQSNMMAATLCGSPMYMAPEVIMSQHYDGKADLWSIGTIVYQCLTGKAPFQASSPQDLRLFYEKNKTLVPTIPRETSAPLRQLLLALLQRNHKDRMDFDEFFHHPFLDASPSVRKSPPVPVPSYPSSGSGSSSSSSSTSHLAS
Nature of the assay: Biochemical assay for ULK1.2 (coupled pyruvate kinase/lactate dehydrogenase assay). The conditions noted are these: 19 nM ULK1 (Eurofins), myelin basic protein, 1 mM ATP. The gist of the method:
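NADH-coupled PK/LDH read-out at 340 nm, run with 19 nM ULK1, 0.25 mg/mL myelin basic protein and 1 mM ATP. Buffer was 100 mM Tris pH 7.5 with 15 mM MgCl2 and 1% DMSO final. Monitoring was continuous for 6 hours at 30° C; rates from the 2-3 h window were converted to percent inhibition and fitted to a four-parameter curve for IC50.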

The target of the next assay is T2, LRRK2 kinase (Homo sapiens, UniProt Q5S007).
T2 construct: purchased Thermo Fisher
As to the kind of experiment: Biochemical assay for LRRK2 (coupled pyruvate kinase/lactate dehydrogenase assay). The conditions noted are these: 26.4 nM LRRK2 (residues 970-2528), 0.1 mM peptide substrate, 1 mM ATP. On the procedure: Example 182. Biochemical Assay for LRRK2 (SEQ. ID NO. 4)
Activity of LRRK2 kinase was determined spectroscopically using a coupled pyruvate kinase/lactate dehydrogenase assay that continuously monitors the ATP hydrolysis-dependent oxidation of NADH (e.g., Schindler et al. Science (2000) 289: 1938-1942). Assays were conducted in 384-well plates (100 uL final volume) using 26.4 nM LRRK2 (Thermo Fisher), 0.1 mM peptide substrate (RLGRDKYKTLRQIRQ (SEQ ID NO: 6)), 1.5 units pyruvate kinase, 2.1 units lactate dehydrogenase, 1 mM phosphoenol pyruvate, 0.28 mM NADH and 1 mM ATP in assay buffer (100 mM Tris, pH 7.5, 15 mM MgCl2, 0.5 mM DTT, 0.004% (w/v) BSA, and 0.004% Triton X-100). Inhibition of LRRK2 was measured by adding serial diluted test compound (final assay concentration of 1% DMSO). A decrease in absorption at 340 nm was monitored continuously for 6 hours at 30° C. on a multi-mode microplate reader (BioTek). The reaction rate was calculated using the 2-3 h time frame. The reaction rate at each concentration of compound was converted to percent inhibition using controls (i.e. reaction with no test compound and reaction with a known inhibitor) and IC50 values were calculated using software routines in Prism (GraphPad software).

A further assay has as its target T3, ULK2 kinase (Homo sapiens, UniProt Q8IYT8).
T3 construct: purchased Eurofins 14-772
As to the kind of experiment: Biochemical assay for ULK2 (coupled pyruvate kinase/lactate dehydrogenase assay). As to conditions: 9.7 nM ULK2 (Eurofins), myelin basic protein, 1 mM ATP; read-out: ULK2.2. Here is the method:
Example 176. Biochemical Assay for ULK2
Activity of ULK2 kinase was determined spectroscopically using a coupled pyruvate kinase/lactate dehydrogenase assay that continuously monitors the ATP hydrolysis-dependent oxidation of NADH (e.g., Schindler et al. Science (2000) 289: 1938-1942). Assays were conducted in 384-well plates (100 uL final volume) using 9.7 nM ULK2 (Eurofins CAT #14-772), 0.25 mg/mL myelin basic protein, 1.5 units pyruvate kinase, 2.1 units lactate dehydrogenase, 1 mM phosphoenol pyruvate, 0.28 mM NADH and 1 mM ATP in assay buffer (100 mM Tris, pH 7.5, 15 mM MgCl2, 0.5 mM DTT, 0.1% octyl-glucoside, 0.002% (w/v) BSA, and 0.002% Triton X-100). Inhibition of ULK2 was measured by adding serial diluted test compound (final assay concentration of 1% DMSO). A decrease in absorption at 340 nm was monitored continuously for 6 hours at 30° C. on a multi-mode microplate reader (BioTek). The reaction rate was calculated using the 2-3 h time frame. The reaction rate at each concentration of compound was converted to percent inhibition using controls (i.e. reaction with no test compound and reaction with a known inhibitor) and IC50 values were calculated by fitting a four-parameter sigmoidal curve to the data using Prism (GraphPad software).

Assay [1] has as its system phospho-Serine 318 ATG13 (pATG13), ULK kinase substrate, in A549 (KRAS mutant) cells. Nature of the assay: pATG13 levels of mutant KRas A549 cells after treatment with ULK inhibitors in combination with trametinib (ELISA). As to conditions: with 250 nM trametinib. It is filed as cell-based, human. Here is the method: Example 177. Cellular Inhibition of ULK Kinase Substrate ATG13 Protein pATG13 Levels of Mutant KRas A549 Cells after Treatment with ULK Inhibitors in Combination with Trametinib
A549 (KRAS mutant) human lung cancer cells (6,000 cells/well) were added to a 384-well tissue-culture treated plate in 50 μL of pre-warmed DMEM medium supplemented with 10% characterized fetal bovine serum (Invitrogen, Carlsbad, Calif.), 100 units/mL penicillin G, and 100 μg/mL streptomycin and allowed to grow overnight at 37° C., 5% CO2, and 95% humidity. The following day, 10 μL of media containing trametinib or DMSO as a control was added to wells. The final concentration of trametinib in wells was 250 nM. A dose response of a test compound (0.6 μL per well) was added. DMSO (0.6 μL) was added to control wells. The plate was briefly shaken to mix wells and then incubated at 37° C. overnight. The next day, the media was aspirated and cells were washed with Dulbecco's Phosphate Buffered Saline (Gibco). Cells were lysed using MPER lysis buffer (Pierce, Rockford, Ill.) containing Halt Phosphatase and Protease Inhibitors (Pierce, Rockford, Ill.) and Phosphatase inhibitor cocktail 2 (Sigma, St. Louis, Mo.) at 4° C. for 10 minutes with shaking.
Cellular levels of phospho-Serine 318 ATG13 (pATG13) were measured via an ELISA method. Total ATG13 Antibody (Cell Signaling Cat #13273) was used to coat the wells. The plate was incubated at 4° C. overnight and washed with ELISA wash buffer (Biolegend Cat #421601). The wells were then blocked with assay diluent (Biolegend Cat #421203) for 1 hour at room temperature. Plate wells were washed with ELISA wash buffer. Cell lysate was added to wells and incubated at room temperature for 2 hours. Plate wells were washed with ELISA wash buffer. Biotinylated pS318-ATG13 antibody (Rockland Immunochemicals Cat #600-401-C49) was diluted in assay diluent and added to each well and incubated at room temperature for 1 hour. Plate wells were washed with ELISA wash buffer. Streptavidin linked to horseradish peroxidase (Thermo Fisher Cat #21140) was diluted in assay diluent and added to each well and incubated at room temperature for 1 hour. Plate wells were washed with ELISA wash buffer. High sensitivity TMB substrate (Biolegend Cat #421101) was added to each well and incubated at room temperature for 20 minutes. The reaction was stopped with 2N Sulfuric Acid. The plate was analyzed at on a plate reader measuring absorbance at 450 nm and 540 nm (background). Signal was calculated by first subtracting the background absorbance at 540 nm from the absorbance at 450 nm for each well. Next, the background corrected absorbance at 450 nm from blank wells was subtracted from test wells. Data was compared to control wells to determine % ATG13 phosphorylation. GraphPad Prism was used to calculate IC50 values.
For orientation: ELISA stands for enzyme-linked immunosorbent assay.

T2 sequence (Q5S007 with tags, fused parts or gaps): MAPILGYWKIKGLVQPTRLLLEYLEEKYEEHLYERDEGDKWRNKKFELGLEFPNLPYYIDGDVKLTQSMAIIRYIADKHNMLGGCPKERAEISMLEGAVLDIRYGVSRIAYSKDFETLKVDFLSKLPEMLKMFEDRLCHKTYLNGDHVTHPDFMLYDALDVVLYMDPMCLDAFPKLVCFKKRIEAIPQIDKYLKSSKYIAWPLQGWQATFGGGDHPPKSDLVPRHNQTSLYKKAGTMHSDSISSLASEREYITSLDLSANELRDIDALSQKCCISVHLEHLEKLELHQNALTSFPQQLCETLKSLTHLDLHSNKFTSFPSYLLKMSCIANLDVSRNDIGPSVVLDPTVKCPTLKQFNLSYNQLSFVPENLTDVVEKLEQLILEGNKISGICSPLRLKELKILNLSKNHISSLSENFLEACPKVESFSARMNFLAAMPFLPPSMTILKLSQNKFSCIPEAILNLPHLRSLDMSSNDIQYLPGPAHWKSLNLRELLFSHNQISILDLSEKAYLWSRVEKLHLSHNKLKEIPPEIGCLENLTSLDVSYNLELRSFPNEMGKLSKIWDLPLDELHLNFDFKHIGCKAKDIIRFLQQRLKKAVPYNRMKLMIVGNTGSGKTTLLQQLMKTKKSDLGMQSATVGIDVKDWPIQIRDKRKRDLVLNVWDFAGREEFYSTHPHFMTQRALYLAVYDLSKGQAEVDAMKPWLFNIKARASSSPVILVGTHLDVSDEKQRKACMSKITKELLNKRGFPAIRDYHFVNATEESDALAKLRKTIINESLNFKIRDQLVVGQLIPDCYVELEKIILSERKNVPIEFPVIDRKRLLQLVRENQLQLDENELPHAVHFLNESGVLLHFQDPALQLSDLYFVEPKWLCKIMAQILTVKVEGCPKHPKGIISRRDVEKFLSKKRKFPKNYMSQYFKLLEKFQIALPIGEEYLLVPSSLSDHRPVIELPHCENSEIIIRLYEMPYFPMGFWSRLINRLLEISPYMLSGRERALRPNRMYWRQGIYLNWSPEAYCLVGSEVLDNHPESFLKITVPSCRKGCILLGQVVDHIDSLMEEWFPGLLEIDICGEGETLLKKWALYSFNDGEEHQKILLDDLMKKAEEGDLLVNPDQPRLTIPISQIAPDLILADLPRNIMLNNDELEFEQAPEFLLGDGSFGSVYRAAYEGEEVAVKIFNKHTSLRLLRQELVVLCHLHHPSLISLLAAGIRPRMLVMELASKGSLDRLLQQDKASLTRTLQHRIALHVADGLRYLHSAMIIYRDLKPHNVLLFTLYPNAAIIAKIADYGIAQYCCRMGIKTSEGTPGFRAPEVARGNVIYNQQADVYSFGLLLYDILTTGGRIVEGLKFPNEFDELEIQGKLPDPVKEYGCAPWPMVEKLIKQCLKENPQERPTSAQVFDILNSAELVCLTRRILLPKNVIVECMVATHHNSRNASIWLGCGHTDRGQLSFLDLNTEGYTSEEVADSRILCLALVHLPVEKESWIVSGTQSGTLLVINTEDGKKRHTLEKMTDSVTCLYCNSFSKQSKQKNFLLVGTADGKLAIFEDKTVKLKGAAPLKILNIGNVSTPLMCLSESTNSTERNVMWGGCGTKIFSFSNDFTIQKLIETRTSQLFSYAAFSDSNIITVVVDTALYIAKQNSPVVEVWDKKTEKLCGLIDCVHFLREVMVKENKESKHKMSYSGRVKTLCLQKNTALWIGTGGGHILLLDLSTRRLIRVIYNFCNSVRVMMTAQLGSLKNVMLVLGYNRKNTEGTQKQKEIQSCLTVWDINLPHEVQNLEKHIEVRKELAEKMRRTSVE
T3 sequence (Q8IYT8 with tags, fused parts or gaps): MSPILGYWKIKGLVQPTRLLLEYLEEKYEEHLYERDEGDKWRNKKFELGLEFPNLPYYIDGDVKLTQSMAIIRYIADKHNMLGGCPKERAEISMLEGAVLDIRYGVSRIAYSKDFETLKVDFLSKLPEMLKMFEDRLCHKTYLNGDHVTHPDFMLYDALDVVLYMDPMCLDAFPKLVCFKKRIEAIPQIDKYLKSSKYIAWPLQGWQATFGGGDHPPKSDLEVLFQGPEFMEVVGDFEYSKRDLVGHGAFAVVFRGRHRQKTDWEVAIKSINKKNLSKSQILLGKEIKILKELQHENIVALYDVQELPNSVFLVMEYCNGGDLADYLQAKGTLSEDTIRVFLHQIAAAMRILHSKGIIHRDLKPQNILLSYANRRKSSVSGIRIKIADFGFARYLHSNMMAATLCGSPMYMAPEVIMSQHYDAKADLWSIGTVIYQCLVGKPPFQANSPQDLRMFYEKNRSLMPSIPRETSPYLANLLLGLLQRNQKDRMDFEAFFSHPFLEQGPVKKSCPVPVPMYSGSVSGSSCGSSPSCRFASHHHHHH

On to `CN1CCC(n2cc(Nc3ncc(C4CC4)c(NCCCN4CCCCC4=O)n3)cn2)CC1` [Example 1], for which the values for the pIC50 against ULK1 kinase, at LRRK2 kinase and on ULK2 kinase were 7.00 to 7.60, < 6.22 and < 6.30, respectively.

As to `O=C1CCCCN1CCCNc1nc(Nc2cnn(C3CCNCC3)c2)ncc1Cl` [Example 4], the pIC50 in assay [1] is < 6.22; on ULK1 kinase, 7.60 to 9.00; on ULK2 kinase, 7.00 to 7.60.

Turning to `CCN1CC[C@@H](n2cc(Nc3ncc(C(F)(F)F)c(NCCCN4CCCCC4=O)n3)c(C)n2)C1` [Example 25], the figures for the pIC50 (in assay [1]; on ULK1 kinase; on ULK2 kinase) were 7.00 to 8.00, 7.60 to 9.00 and 7.00 to 7.60, respectively.

`Cc1nn(C2CCNCC2)cc1Nc1ncc(Br)c(NCCCN2CCCCC2=O)n1` [Example 26]: the pIC50 in assay [1] is < 6.22; at ULK1 kinase, 7.60 to 9.00; against LRRK2 kinase, 6.22 to 6.52; at ULK2 kinase it was 7.00 to 7.60.

For `Cc1nn(C2CCNCC2)cc1Nc1ncc(Cl)c(NCCCN2CCCCC2=O)n1` [Example 27], the pIC50 in assay [1] was < 6.22; on ULK1 kinase, 7.00 to 7.60; on ULK2 kinase, 6.30 to 7.00.

For `Cc1nn(C2CCN(C)CC2)cc1Nc1ncc(Br)c(NCCCN2CCCCC2=O)n1` [Example 51], the pIC50 was < 6.22 in assay [1], 7.60 to 9.00 against ULK1 kinase and 7.00 to 7.60 at ULK2 kinase.

Regarding `O=C1CCCCCN1CCCNc1nc(Nc2cnn(C3CCNCC3)c2)ncc1C(F)(F)F` [Example 77], the pIC50 is 6.52 to 7.00 in assay [1], 7.60 to 9.00 on ULK1 kinase and 7.60 to 9.00 at ULK2 kinase.

Regarding `CN1CCC(n2cc(Nc3ncc(C(F)(F)F)c(NCCCN4CCCCCC4=O)n3)cn2)CC1` [Example 78], the pIC50 in assay [1] is 7.00 to 8.00; at ULK1 kinase, 7.60 to 9.00; on ULK2 kinase it was 7.60 to 9.00.

Turning to `Cc1nn(C2CCN(C)CC2)cc1Nc1ncc(Cl)c(NCCCN2CCCCCC2=O)n1` [Example 80, 1-(3-((5-chloro-2-((3-methyl-1-(1-methylpiperidin-4-yl)-1H-pyrazol-4-yl)amino)pyrimidin-4-yl)amino)propyl)azepan-2-one], the pIC50 in assay [1] was 7.00 to 8.00; on ULK1 kinase, 7.60 to 9.00; against LRRK2 kinase, 6.52 to 7.00; at ULK2 kinase it was 6.30 to 7.00.

As to `CN1CCC(n2cc(Nc3ncc(Cl)c(NCCCN4CCCCCC4=O)n3)cn2)CC1` [Example 81], the pIC50 in assay [1] is 7.00 to 8.00; at ULK1 kinase, 7.60 to 9.00; at ULK2 kinase it was 7.60 to 9.00.

`Cc1nn(C2CCNCC2)cc1Nc1ncc(C(F)(F)F)c(NCCCN2CCCCCC2=O)n1` [Example 83, 1-(3-((2-((3-methyl-1-(piperidin-4-yl)-1H-pyrazol-4-yl)amino)-5-(trifluoromethyl)pyrimidin-4-yl)amino)propyl)azepan-2-one]: the pIC50 was 6.52 to 7.00 in assay [1], 7.60 to 9.00 against ULK1 kinase and 7.60 to 9.00 at ULK2 kinase.

Take `Cc1nn(C2CCNCC2)cc1Nc1ncc(Cl)c(NCCCN2CCCCCC2=O)n1` [Example 86]: the pIC50 is < 6.22 in assay [1], 7.00 to 7.60 against ULK1 kinase and 6.30 to 7.00 on ULK2 kinase.

As for `Cc1nn(C2CCN(C3COC3)CC2)cc1Nc1ncc(C(F)(F)F)c(NCCCN2CCCCCC2=O)n1` [Example 91], the pIC50 in assay [1] was 6.22 to 6.52; at ULK1 kinase it was 7.60 to 9.00; at ULK2 kinase, 6.30 to 7.00.

On to `Cc1nn(C2CCNCC2)cc1Nc1ncc(C(F)(F)F)c(NCCCN2CCCC2=O)n1` [Example 103], for which the values for the pIC50 (in assay [1]; against ULK1 kinase; on ULK2 kinase) were < 6.22, 7.00 to 7.60 and 7.00 to 7.60, respectively.

`Cc1nn(C2CCN(C)CC2)cc1Nc1ncc(C(F)(F)F)c(NCCCN2CCCC2=O)n1` [Example 104]: the pIC50 in assay [1] was < 6.22; against ULK1 kinase, 7.00 to 7.60; against LRRK2 kinase, 6.22 to 6.52; at ULK2 kinase, 7.00 to 7.60.

Regarding `CN1CCC(n2cc(Nc3ncc(C4CC4)c(NCCCN4CCN(C)C4=O)n3)cn2)CC1` [Example 147], the pIC50 on ULK1 kinase is 6.30 to 7.00; on LRRK2 kinase it was < 6.22; at ULK2 kinase it was < 6.30.

Turning to `CN1CCC(n2cc(Nc3ncc(C(F)(F)F)c(NCCCN4CCCC4=O)n3)cn2)CC1` [Example 166], the pIC50 was 6.52 to 7.00 in assay [1], 7.60 to 9.00 at ULK1 kinase and 7.00 to 7.60 at ULK2 kinase.
